Data set [1] concerns the target T1, MC4 (Homo sapiens, UniProt P32245). Kind of data set: Stimulation of cAMP, MC4. Type of data set: cell-based. To be noted: response given relative to α-MSH. How it is done: (§1) The stimulation of cAMP was carried out essentially as described by Schiöth et al, Br J Pharmacol 1998; 124; 75–82, however, the response is given relative to α-MSH.
The target of a further data set is MC1 (Homo sapiens, UniProt Q01726). Kind of data set: Stimulation of cAMP, MC1. In kind it is cell-based. Conditions: response given relative to α-MSH. How it is done:
as §1

The target of a further data set is MC5-receptors (Homo sapiens, UniProt P33032). The data set can be described thus: Affinity for the MC5-receptors, binding assay using I125-NDP-αMSH as ligand. How it is done: (§2) Test 2. Affinity for the MC3-receptors, the MC4-receptors and the MC5-receptors
Sequence of MC5-receptors (P33032 whole entry): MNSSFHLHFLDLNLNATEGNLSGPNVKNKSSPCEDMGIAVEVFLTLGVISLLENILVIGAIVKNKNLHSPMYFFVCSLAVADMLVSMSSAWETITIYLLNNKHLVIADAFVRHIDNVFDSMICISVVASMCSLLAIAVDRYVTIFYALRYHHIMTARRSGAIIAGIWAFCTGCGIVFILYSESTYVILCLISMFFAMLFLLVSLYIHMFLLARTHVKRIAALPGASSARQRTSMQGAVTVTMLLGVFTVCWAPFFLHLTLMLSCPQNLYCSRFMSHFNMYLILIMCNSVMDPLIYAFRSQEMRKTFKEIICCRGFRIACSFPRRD
(§3) The binding assays were carried out essentially as described by Szardenings et al, J Biol Chem 1997; 272; 27943–27948 and Schiöth et al, FEBS Lett 1997; 410; 223–228 using I125-NDP-αMSH as ligand.

In data set [2] the target is T2, MC3 (Homo sapiens, UniProt P41968). The data set can be described thus: Stimulation of cAMP, MC3. In kind it is cell-based. Conditions: response given relative to α-MSH. How it is done: as §1
T2 sequence (P41968 whole entry): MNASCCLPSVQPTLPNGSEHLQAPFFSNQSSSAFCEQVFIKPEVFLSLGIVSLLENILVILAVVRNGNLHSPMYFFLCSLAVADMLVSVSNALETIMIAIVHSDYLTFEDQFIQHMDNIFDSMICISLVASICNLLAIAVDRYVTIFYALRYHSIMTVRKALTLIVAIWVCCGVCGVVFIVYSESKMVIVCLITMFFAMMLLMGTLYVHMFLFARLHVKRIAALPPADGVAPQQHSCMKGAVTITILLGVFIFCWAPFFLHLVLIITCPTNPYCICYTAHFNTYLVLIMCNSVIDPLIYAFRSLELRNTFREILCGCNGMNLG
In data set [3] the target is T2, MC3. Kind of data set: Affinity for the MC3-receptors, binding assay using I125-NDP-αMSH as ligand. How it is done: as §2, §3
The target in data set [4] is T1, MC4. The data set can be described thus: Affinity for the MC4-receptors, binding assay using I125-NDP-αMSH as ligand. How it is done: as §2, §3

T1 sequence (P32245 whole entry): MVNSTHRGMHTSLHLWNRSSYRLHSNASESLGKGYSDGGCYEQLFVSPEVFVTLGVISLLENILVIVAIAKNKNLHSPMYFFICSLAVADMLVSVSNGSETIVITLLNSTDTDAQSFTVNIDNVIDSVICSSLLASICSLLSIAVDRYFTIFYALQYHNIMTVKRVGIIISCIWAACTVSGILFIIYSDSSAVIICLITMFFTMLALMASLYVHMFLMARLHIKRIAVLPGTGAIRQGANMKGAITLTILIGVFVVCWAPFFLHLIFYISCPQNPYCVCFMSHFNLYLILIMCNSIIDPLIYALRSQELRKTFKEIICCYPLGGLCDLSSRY
Sequence of MC1 (Q01726 whole entry): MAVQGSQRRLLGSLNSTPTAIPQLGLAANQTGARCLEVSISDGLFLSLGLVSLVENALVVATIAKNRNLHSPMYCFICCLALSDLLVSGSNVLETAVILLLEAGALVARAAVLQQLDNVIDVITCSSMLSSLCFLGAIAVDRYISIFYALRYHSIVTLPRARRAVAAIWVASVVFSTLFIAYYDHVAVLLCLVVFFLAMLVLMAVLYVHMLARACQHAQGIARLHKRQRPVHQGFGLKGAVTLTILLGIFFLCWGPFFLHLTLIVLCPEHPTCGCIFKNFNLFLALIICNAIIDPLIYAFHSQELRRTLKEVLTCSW

Usually melting point stands for the temperature of the solid-liquid transition. For the compound `COc1ccc(C=NNC(=Nc2ccccc2)NO)c(Cl)c1OC` [Compound 2, N-(2-chloro-3,4-dimethoxybenzylideneamino)-N′-hydroxy-N″-phenylguanidine], the melting point was 167 to 169 °C.

`N=C(NCCc1ccccc1)NN=Cc1ccc2ccccc2c1` [Compound 21, N-(naphthalen-2-yl-methylideneamino)-N′-(2-phenylethyl)guanidine] registered a melting point of 244 to 246 °C.

A word on the Ki: it is a dissociation constant, usually derived from enzyme kinetics or from competition with a known ligand. Read a high Ki as weaker binding. For `N=C(NCCc1ccccc1)NN=Cc1ccccc1Br` [Compound 27, N-(2-Bromobenzylideneamino)-N′-phenethylguanidine], the melting point was 154 to 155 °C. The “cAMP agonist/plateau stim. α-MSH (%) MC4” value at MC4 [1] is given as 97%. Further, the “cAMP agonist/plateau stim. α-MSH (%) MC1” value on MC1 is recorded as 12%. The affinity at MC5-receptors corresponds to a Ki of 5.8 µM. Besides, the “cAMP agonist/plateau stim. α-MSH (%) MC3” value at MC3 [2] is recorded as 9%. The compound also had a Ki at MC3 [3] of 7.96 µM. This compound also registered a Ki at MC4 [4] of 1.35 µM.

Regarding `CNC(=N)NN=Cc1cc([N+](=O)[O-])ccc1F` [Compound 35, N-(2-Fluoro-5-nitrobenzylideneamino)-N′-methylguanidine], the melting point was in the range of 217 to 219 °C.

In turn, `COc1ccc(C=NNC(=N)NCCc2ccccc2)cc1` [Compound 10, N-(4-methoxybenzylideneamino)-N′-(2-phenylethyl)guanidine] came in with a melting point of 126 to 128 °C.

`N=C(NCCc1ccccc1)NN=Cc1c[nH]c2ccccc12` [Compound 12, N-(1H-indol-3-ylmethylideneamino)-N′-(2-phenylethyl)guanidine] displayed a melting point of 207 to 209 °C.

As to `N=C(NCc1ccccc1)NN=Cc1ccc([N+](=O)[O-])cc1` [Compound 24, N-(4-Nitrobenzylideneamino)-N′-benzylguanidine], the melting point lay within 239 to 241 °C.

As to `N=C(NN=Cc1cc([N+](=O)[O-])ccc1F)Nc1ccccc1` [Compound 17, N-(2-fluoro-5-nitrobenzylideneamino)-N′-phenylguanidine], the melting point is 191 to 193 °C.

Take `N=C(NN=Cc1c[nH]c2ccccc12)NN=Cc1c[nH]c2ccccc12` [Compound 14, N,N′-bis[1H-indol-3-yl-methylideneamino]guanidine]: the melting point was 296 to 298 °C.

For the compound `N=C(NCCc1ccccc1)NN=Cc1ccc([N+](=O)[O-])cc1` [Compound 20, N-(4-nitrobenzylideneamino)-N′-(2-phenylethyl)guanidine], the melting point was in the range of 241 to 243 °C.

`N=C(N)N(Cc1cccc2ccccc12)N=Cc1c[nH]c2ccccc12` [Compound 13, N-(1H-indol-3-yl-methylideneamino)-N-(naphthalen-1-ylmethyl)guanidine] displayed a melting point of 213 to 215 °C.

Compound `N=C(NCc1ccccc1)NN=Cc1cccn1-c1ccc(Cl)cc1` [Compound 29, N-[1-(4-Chlorophenyl) 1H-pyrrol-2-ylmethyleneamino]-N′-benzylguanidine] returned a melting point of 190 to 192 °C. The “cAMP agonist/plateau stim. α-MSH (%) MC4” value on MC4 [1] was 111%. In addition, the “cAMP agonist/plateau stim. α-MSH (%) MC1” value at MC1 is given as 10%. In addition, on MC5-receptors, the Ki turned out to be 1.32 µM. Moreover, at MC3 [2], the “cAMP agonist/plateau stim. α-MSH (%) MC3” value is 3%. At MC4 [4], this compound returned a Ki of 0.61 µM.

Regarding `COc1ccc(C=NNC(=N)Nc2ccccc2)c(Cl)c1OC` [Compound 16, N-(2-chloro-3,4-dimethoxybenzylideneamino)-N′-phenylguanidine], the melting point is 179 to 181 °C.

The compound `N=C(NN=Cc1ccccc1Br)Nc1ccccc1` [Compound 28, N-(2-Bromobenzylideneamino)-N′-phenylguanidine] gave a melting point of 149 to 152 °C.

As for `N=C(NN=Cc1cccn1-c1ccc(Cl)cc1)NN=Cc1cccn1-c1ccc(Cl)cc1` [Compound 34, N,N′-Di-(1-(4-Chlorophenyl)-1H-pyrrol-2-ylmethyleneamino)guanidine], the melting point lay in the range of 221 to 223 °C.

Turning to `N=C(NCc1cccc2ccccc12)NN=Cc1ccncc1` [Compound 11, N-(pyrid-4-yl-methylideneamino)-N′-(naphthalen-1-yl-methyl)guanidine], the melting point was in the range of 260 to 262 °C.

On to `N=C(NCc1ccccc1)NN=Cc1ccc(O)cc1` [Compound 18, N-(4-hydroxybenzylideneamino)-N′-benzylguanidine], for which the melting point fell in the range of 192 to 194 °C.

Regarding `COc1ccc(C=NNC(=N)NCc2ccccc2)c(Cl)c1OC` [Compound 1, N-(2-chloro-3,4-dimethoxybenzylideneamino)-N′-benzylguanidine], the melting point is 215 to 217 °C.

Take `N=C(NN=Cc1cccc2ccccc12)NN=Cc1cccc2ccccc12` [Compound 30, N,N′-Di-(naphthalen-1-ylmethyleneamino)guanidine]: the melting point was 253 to 255 °C.

The compound `COc1ccc(C=NNC(=N)NN=Cc2ccc(OC)c(OC)c2Cl)c(Cl)c1OC` [Compound 32, N,N′-Di-(2-Chloro-3,4-Dimethoxybenzylideneamino)guanidine] returned a melting point of 228 to 230 °C.

`N=C(NN=Cc1ccc2ccccc2c1)Nc1ccc2ccccc2c1` [Compound 23, N-(naphthalen-2-yl-methylideneamino)-N′-naphthalen-2-ylguanidine] showed a melting point of 218 to 220 °C.

For `N=C(NN=Cc1ccc([N+](=O)[O-])cc1[N+](=O)[O-])Nc1ccccc1`, the melting point lay in the range of 180 to 190 °C.

`CNC(=N)NN=Cc1ccc(OC)c(OC)c1Cl` [Compound 37, N-(2-Chloro-3,4-dimethoxybenzylideneamino)-N′-methylguanidine]: the melting point was 207 to 210 °C.

`N=C(NCCc1ccccc1)NN=CC=Cc1ccccc1` [Compound 33]: the melting point lay in the range of 175 to 177 °C. Moreover, on MC4 [1], the “cAMP agonist/plateau stim. α-MSH (%) MC4” value stood at 161%. Further, the “cAMP agonist/plateau stim. α-MSH (%) MC1” value at MC1 is listed as 8%. At MC5-receptors, this compound showed a Ki of 8.23 µM. The “cAMP agonist/plateau stim. α-MSH (%) MC3” value on MC3 [2] was found to be 4%. The Ki at MC3 [3] amounted to 5.36 µM. Moreover, the Ki at MC4 [4] was 3.59 µM.

(Values after patent US7153881B2, “Compounds acting as melanocortin receptor ligands” (Acure Pharma AB, priority 2001, dated 2006).)
